Patent US10172835B2, “Anticancer agent composition” (J-Pharma Co., Ltd., priority 2014, dated 2019)

Tests used:
[1] = tested on: mTOR (phospho-S6RP); assay: Phospho-Flow staining of phospho-S6RP in primary T-ALL samples; assay type: cell-based, human; settings: two primary T-ALL samples, 10 μM
Procedure: Cells (1.0±0.1×10^6 per well; 1 mL) were incubated with various effectors (24 h, 37° C.) and then permeabilized with Cytofix/Cytoperm buffer (100 μL, 30 min, 4° C.) and then washed with PermWash (BD Biosciences) and stained with phospho-Ser235/236-S6RP antibody (30 min, 4° C.). After an additional PermWash, cells were then stained with a secondary anti-rabbit-alexaF 488 (20 μg/mL; Life Technologies) for (30 min, 4° C.). Cells were then washed in PermWash and re-suspended in staining buffer (PBS+0.1% bovine serum albumin+1.0% paraformaldehyde) and analyzed by flow cytometry on a MacsQuant Analyser (Miltenyi Biotech).

[2] = tested on: normal murine thymocytes; assay: WST-1 cell viability of normal thymocytes; assay type: cell-based
Procedure: (§1) Two different assays were employed: i) In a 96-well plate format, cells (4.0±0.1×10^4 per well; 100 μL) were incubated with effectors (48 h, 37° C.; n=4 per experiment) and then WST-1 reagent (10 μL; Roche Diagnostics) added to each well of 96-well plates, incubated, and the formazan production was measured at 490 nm; and ii) cells (2.0±0.1×10^4 per well; 100 μL) were incubated with effectors (48 h, 37° C.; n=4 per experiment) and then bromodeoxyuridine reagent (10 μL/well; Roche Diagnostics) was added to each well and incubated (8 h, 37° C.). The cells were then fixed, denatured and incubated with anti-BrdU-conjugated with peroxidase (POD) antibody (100 μL/well). Colorimetric substrate (TMB: tetramethyl-benzidine; 100 μL/well) was added and BrdU incorporation quantified via optical density measurement (450 nm) which corresponds to DNA synthesis and proliferating cells.

[3] = tested on: KO99L cells (tPTEN−/− tumor cell line); assay: WST-1 cell viability assay on KO99L cells; assay type: cell-based, murine
Procedure: as §1

[4] = tested on: 44As3-11 cell derived from human scirrhous stomach cancer; assay: MTT proliferation of 44As3-11 cells; assay type: cell-based; settings: 44As3-11, culture 5 days
Procedure: The culture in the absence of COM-JP and in the presence of COM-JP with different concentrations in the culture medium of each cancer cell was continued for 5 days. Proliferation activity of the cell on each elapsed day was measured by a MTT method.

[5] = tested on: tPTEN−/− cells; assay: Global protein synthesis (data not shown); assay type: cell-based, murine
[6] = tested on: HT-29 cell derived from human large intestine cancer; assay: Tumor growth in nude mouse SOI model (HT-29 grafted onto wall of large intestine); assay type: in vivo
Source text: […] was expressed in a HT-29 cell derived from human large intestine cancer, and which was grafted onto the wall of large intestine of a mouse to produce a metamouse. According to this, the quantity of the size of the tumor could be determined with time with emission intensity. In FIG. 16, the size of tumor in each treatment group was shown with a bar graph. Group 1 is a control group, Groups 2 to 4 are a group in which COM-JP was intraperitoneally administered alone at 3.1, 12.5, and 50 mg/kg weight/day every day for 4 weeks, Group 5 is a group in which CDDP was intraperitoneally administered alone at 2.5 mg/kg/day three times on day 0, day 6, and day 13, Groups 6 to 8 are a group in which Groups 2 to 4 and Group 5 were combined to be administered in combination, and Group 9 is a group in which COM-JP was orally administered at 300 mg/kg/day every day for 4 weeks.

[7] = tested on: KO99L cells; assay: BrdU incorporation Elisa (proliferation) on KO99L cells; assay type: cell-based, murine; settings: 10.0 μM, after 48 h
Procedure: as §1

[8] = tested on: KO99L cells; assay: Cell death by flow cytometry after DAPI staining, KO99L cells; assay type: cell-based, murine; settings: 48 h
[9] = tested on: Unfolded Protein Response components; assay: Western blot of ISR/UPR components, KO99L cells; assay type: cell-based, murine; settings: 10.0 μM
Procedure: (§2) Cell extracts were prepared using a cell lysis buffer (50 mM HEPES, pH 7.4, 150 mM NaCl, 20 mM EDTA, 100 mM NaF, 10 mM Na3VO4, 0.5% nonyl phenoxypolyethoxylethanol (NP40) supplemented with a cocktail of protease inhibitors. After SDS-PAGE separation and transfer to nitrocellulose immunoblotting was performed using the following antibodies against: Akt (Cell Signaling Technologies, #9272), CHOP (#2895), cleaved caspase 3 (#9664), c-Myc (#9402), eIF2a (#9721), 4EBP1 (#9644), LC3A/B (#12741), PARP (#9542), pJnk (T183/Y185) (#9251), pSer235-236-S6RP (#4856), pSer473-Akt (#9271), pSer65-4EBP1 (#9451) and S6RP (#2217); Bax (Sigma-Aldrich, B8429); PUMA (Abcam, ab54288); Bak (Millipore, 06536); ATF4 (Santa Cruz Biotechnologies, sc200), GADD34 (sc8327), Hsp60 (sc-1722), Hsp90 (sc-13119) and XBP1 (sc-7160); ATF6 (Imgenex, IMG-273).

[10] = tested on: CHOP / mTOR; assay: Western blot of CHOP induction and S6RP phosphorylation in KO99-RJ cells; assay type: cell-based, murine
Procedure: as §2

[11] = tested on: human Peripheral Blood Lymphocytes; assay: Proliferative response of human PBL; assay type: cell-based; settings: 1.0-50.0 μM
[12] = tested on: primary T-ALL cells; assay: Cell viability of human T-ALL primary samples; assay type: cell-based; settings: primary T-ALL cells from patients
Procedure: Informed consent was obtained according to institutional guidelines. Heparin-treated blood was obtained from three T-ALL patients and from two healthy donors. Patient lymphoblasts were isolated within 24 hours post collection using Ficoll-Paque PLUS density gradient following vendor recommended procedures (GE Healthcare Life Sciences).
as §1

[13] = tested on: KO99L cells; assay: Mitochondrial trans-membrane potential (TMRE staining), KO99L cells; assay type: cell-based, murine
Procedure: Mitochondrial trans-membrane potential (ψm) changes as a function of apoptotic events were measured using Tetra Methyl Rhodamine Ethyl Ester Perchlorate assay (TMRE; Molecular Probes). […] Thereafter, the cells were washed twice with PBS and then stained with DAPI (Sigma-Aldrich, 1.0 μg/mL) and examined via a MACSQuant Analyser (Miltenyi Biotech) and the data evaluated via FlowJo software.

[14] = tested on: Jurkat T-ALL line; assay: Cell proliferation of Jurkat human T-ALL cells; assay type: cell-based
Procedure: as §1

**Q.** Which results are given for Nc1cc(COc2c(Cl)cc(C[C@H](N)C(=O)O)cc2Cl)c2oc(-c3ccccc3)nc2c1 [COMPOUND-JP, O-(5-amino-2-phenylbenzoxazole-7-yl)methyl-3,5-dichloro-L-tyrosine]?
**A.** phospho-S6RP by phospho-Flow cytometry [1]: mTOR inhibitory effect; toxicity in normal murine thymocytes [2]: non-toxic; cell viability ([3]; KO99L cells, 2.5-10.0 μM, 48 h): dose-dependent decrease; reversal of the viability decrease by Essential Amino Acids (EAA) in the medium ([3]; KO99L cells, 2.5-10.0 μM, NEAA no rescue): partially reversed; cytotoxicity at 40 µM ([3]; Mus musculus, KO99-S (parental KO99L), 40 μM, 48 h, read-out: decrease in cell viability): 95 to 100%; IC50 ([3]; Mus musculus, KO99L tPTEN−/− cells, 48 h, read-out: IC50, cell viability (drug concentration to kill half of the cells)): 2400 nM; proliferation activity [4]: dose-dependent decrease; interference with global protein synthesis [5]: did not observe any interference; efficacy on tumor growth, single administration ([6]; COM-JP i.p. 3.1, 12.5, 50 mg/kg/day 4 weeks, CDDP i.p. 2.5 mg/kg/day day 0, 6, 13): not recognized; increase of the tumor ([6]; Group 9: orally 300 mg/kg/day every day for 4 weeks, vs untreated control): more significantly decreased; diminished cell cycling (proliferation) [7]: 75%; decrease of COMPOUND-JP induced cell death upon EAA addition [8]: 2.5 fold; GADD34 [9]: expression; full length XBP1 [9]: gradually disappeared; p38 stress pathway ([9]; 2.0 h): strongly activated; ATF4 ([9]; 6.0 h): induction; ATF6 ([9]; 18.0 h): induction; eIF2 phosphorylation ([9]; 24 h): De-phosphorylation; integrated stress response (CHOP induction) [10]: failed to trigger the integrated stress response; mTOR inhibition (S6RP phosphorylation) [10]: failed to inhibit mTOR; PBL cell proliferation [11]: did not significantly alter; cell viability (COMPOUND-JP sensitivity) [12]: concentration dependent; Mitonchondrial Outer Membrane Permeabilization (MOMP) ([13]; 5.0 and 10.0 μM): cause MOMP; mitochondrial depolarization ([13]; highest concentration tested (20.0 μM), 48 hr): 70%; proliferation [14]: alter
